Measured values reported in patent publication US8197860B2, “Method for enhancing nutrient absorption with astragalosides” (Nuliv Holding Inc., priority 2005, dated 2012).

Tests used:
Assay type in all cases: cell-based, human
Caco2 cells [1] = assay: Glucose uptake assay; set-up: key to * (regulatory effect on glucose uptake): ↑: the arrows that point up represent the enhancing effect on the glucose uptake; details: for Regulatory effects on the glucose uptake of the Caco2 cells: Table 2 summary; for Uptake rate (glucose): 48 hours, 25 mM glucose
Procedure: To evaluate the effect of the isolated astragaloside compound on the uptake of nutrient substances across the intestinal lumen, Caco-2 cells were grown on permeable filter as an experimental model. Caco2 cells originate from human colonic adenocarcinoma and spontaneously differentiate into an enterocyte-like phenotype after two weeks. The Caco-2 cell line, derived from a human colorectal carcinoma, has been used as an in vitro model system for studying drug absorption in gastrointestinal tract. These cells form monolayers with well-developed tight-junctions, and have been evaluated in details as an in vitro model to study both transcellular transport of nutrients and drugs in intestinal lumen.
Caco-2 cells were obtained from the ATCC (American Type Culture Collection). The cells were maintained in Dulbecco's modified Eagle medium (DMEM) containing 4.5 g/L glucose and 25 mM Hepes, supplemented with 10% fetal calf serum, 100 U/mL penicillin G and […]. The medium was changed every second day. The cells were routinely checked for Mycoplasma in monthly intervals. Caco-2 cells were cultured on semi-permeable membranes to differentiate into a highly functionalized epithelial barrier with remarkable morphological and biochemical similarity to the small intestinal columnar epithelium. The Caco-2 cell monolayers could therefore be used to study the membrane transport properties of many compounds. To trypsinize the cells, the culture dish was washed once with phosphate-buffered saline (PBS) followed by adding trypsine-EDTA for 10 minutes. The trypsinized cells were separated and filtered into single cells using a 35-μm strainer cap (Falcon 2235) before being seeded for further experiments.
Caco-2 cells (5×10^4) were seeded in a 48-well plate and maintained in culture medium (DMEM with 10% FBS, 1% nonessential amino acids, L-glutamine, penicillin G (100 U/mL), streptomycin (10 μg/mL), and amphotericin B (2.5 μg/mL) in a 37° C. incubator for 10 days for the cells to differentiate. The culture medium was changed once every two days. The cells were then washed with PBS before replenishing with the culture medium containing 5% FBS and various astragalosides at the indicated concentrations (0.01, 0.1 and 1 μM) for 48 hours. The Caco2 cells were washed out of remaining glucose with PBS and replaced in the glucose buffer (80 mM NaCl, 100 mM mannitol, 20 mM Tris-HCl, pH 7.4, 3 mM K2HPO4, 1 mM CaCl2, 1 mg/mL BSA) for 1 hour. Glucose uptake was initiated by replacing the glucose buffer with 0.2 ml of glucose buffer containing 2 μCi/mL of ^14C-glucose and unlabeled cold glucose to give a final glucose concentration of 25 mM. Glucose uptake was stopped by removing the glucose buffer and washing with PBS at designated time intervals. The cells were lysed in 0.2 mL of 0.2 N NaOH, and 20 μL of the cell lysate were transferred to the filter-bottomed UniFilter plates (Perkin-Elmer, Wellesley, Mass., USA) and dried in a vacuum oven at 37° C. The bottom of the UniFilter plate was sealed and 25 μL of the counting solution were added into each well. Adhesive plate sealers were used in place of the lids and radioactivity of each sample was counted using the microplate liquid scintillation counter (TopCount, Packard NXT, Packard BioScience Company, Meriden, Conn., USA). The amount of glucose accumulated in the cells was calculated and normalized to protein concentration, and uptake rate was expressed as nanomoles of glucose per minutes per milligram of cell protein (nmol/min/mg). Protein concentration was determined by a standard Bicinchoninic acid (BCA) protein assay. Nonspecific glucose uptake was measured by adding 2 μCi of L-[^14C]-glucose and subtracting from each determination to obtain specific glucose uptake.

Caco-2 cell monolayer [2] = assay: Arginine absorption assay (transport across Caco-2 cell monolayer); set-up: key to * (regulatory effect on arginine transport): ↑: the arrows that point up represent the enhancing effect on the arginine transport; details: for Regulatory effects on the arginine transport across the Caco2 cell monolayer: Table 3 summary; for Transport rate (arginine): 10 mM L-arginine apical; for Arginine transport rate: concentration from 0.01 μM to 1 μM
Outline: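 Differentiated Caco-2 monolayers on transwells, preincubated 1 h at 37° C in pH 7.4 Hepes-buffered saline with glucose. Apical 10 mM L-arginine spiked with L-[3H]-arginine; basolateral radioactivity sampled over time. Transport corrected by [3H]-mannitol, expressed as nmol/min.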

Caco-2 cell monolayer [3] = assay: Tryptophan absorption assay (transport across Caco-2 cell monolayer); set-up: key to * (regulatory effect on tryptophan transport): ↑: the arrows that point up represent the enhancing effect on the tryptophan transport; details: for Regulatory effects on the tryptophan transport across the Caco2 cell monolayer: Table 4 summary; for Tryptophan transport rate: concentration from 0.01 μM to 1 mM
Outline: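 Differentiated Caco-2 monolayers on transwell filters were preincubated for 1 h at 37 °C in choline chloride-based buffer at pH 7.4. Transport began when apical tryptophan was added. Basolateral samples taken over time were counted, corrected for nonspecific flux using [3H]-mannitol, and expressed as nmol/min.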

Caco2 cells [4] = assay: Folate uptake assay; set-up: key to * (regulatory effect on folate uptake): ↑: the arrows that point up represent the enhancing effect on folate uptake; details: compound 0.1 μM; for Uptake rate (folate): 2 days, 5 μM folate, pH 6.0
Outline: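 Caco-2 cells differentiated 10 days, then pretreated 2 days with 0.1 μM isolated astragalosides in 5% FBS medium. Preincubated 1 h in HBSS-based folate uptake buffer pH 6.0; uptake started with 2 μCi/mL ³H-folic acid plus unlabeled folate.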

Row | SMILES | Regulatory effects on the glucose uptake of the Caco2 cells (Caco2 cells [1]) | * (regulatory effect on glucose uptake) (Caco2 cells [1]; compound 0.01 μM) | Percentage (glucose uptake, control = 100) (Caco2 cells [1]; compound 0.01 μM) [%] | Uptake rate (glucose) (Caco2 cells [1]; compound 0.01 μM) [nmol/mg/min] | * (regulatory effect on glucose uptake) (Caco2 cells [1]; compound 0.1 μM) | Percentage (glucose uptake, control = 100) (Caco2 cells [1]; compound 0.1 μM) [%] | Uptake rate (glucose) (Caco2 cells [1]; compound 0.1 μM) [nmol/mg/min] | * (regulatory effect on glucose uptake) (Caco2 cells [1]; compound 1 μM) | Percentage (glucose uptake, control = 100) (Caco2 cells [1]; compound 1 μM) [%] | Uptake rate (glucose) (Caco2 cells [1]; compound 1 μM) [nmol/mg/min] | Regulatory effects on the arginine transport across the Caco2 cell monolayer (Caco-2 cell monolayer [2]) | * (regulatory effect on arginine transport) (Caco-2 cell monolayer [2]; compound 0.01 μM) | Percentage (arginine transport, control = 100) (Caco-2 cell monolayer [2]; compound 0.01 μM) [%] | Transport rate (arginine) (Caco-2 cell monolayer [2]; compound 0.01 μM) [nmol/min] | * (regulatory effect on arginine transport) (Caco-2 cell monolayer [2]; compound 0.1 μM) | Percentage (arginine transport, control = 100) (Caco-2 cell monolayer [2]; compound 0.1 μM) [%] | Transport rate (arginine) (Caco-2 cell monolayer [2]; compound 0.1 μM) [nmol/min] | * (regulatory effect on arginine transport) (Caco-2 cell monolayer [2]; compound 1 μM) | Percentage (arginine transport, control = 100) (Caco-2 cell monolayer [2]; compound 1 μM) [%] | Transport rate (arginine) (Caco-2 cell monolayer [2]; compound 1 μM) [nmol/min] | further results
1 | CC(C)(O)[C@@H]1CC[C@](C)([C@H]2[C@@H](O)C[C@@]3(C)[C@@H]4C[C@H](O[C@@H]5O[C@H](CO)[C@@H](O)[C@H](O)[C@H]5O)[C@H]5C(C)(C)[C@@H](O[C@@H]6OC[C@@H](O)[C@H](O)[C@H]6O[C@@H]6O[C@H](CO)[C@@H](O)[C@H](O)[C@H]6O)CC[C@@]56C[C@@]46CC[C@]23C)O1 [AS6, astragaloside VI] | had regulatory effects on the glucose uptake | ↑ | 119.84 | 7.6360 ± 1.7330 | ↑ | 109.97 | 7.0070 ± 1.9470 | ↑ | 122.49 | 7.8050 ± 1.1830 | had regulatory effects on the arginine transport | ↑ | 130.35 | 13.9283 ± 1.7330 | ↑ | 140.36 | 14.9986 ± 1.3200 | ↑ | 127.22 | 13.5942 ± 1.2760 | Arginine transport rate (Caco-2 cell monolayer [2]): increased; Regulatory effects on the tryptophan transport across the Caco2 cell monolayer (Caco-2 cell monolayer [3]): had regulatory effects on the tryptophan transport; * (regulatory effect on tryptophan transport) (Caco-2 cell monolayer [3]; compound 0.01 μM): ↑; Percentage (tryptophan transport, control = 100) (Caco-2 cell monolayer [3]; compound 0.01 μM): 173.45%; Transport rate (tryptophan) (Caco-2 cell monolayer [3]; compound 0.01 μM): 15.510 ± 0.3688 nmol/min; * (regulatory effect on tryptophan transport) (Caco-2 cell monolayer [3]; compound 0.1 μM): ↑; Percentage (tryptophan transport, control = 100) (Caco-2 cell monolayer [3]; compound 0.1 μM): 151.87%; Transport rate (tryptophan) (Caco-2 cell monolayer [3]; compound 0.1 μM): 13.850 ± 0.6567 nmol/min; * (regulatory effect on tryptophan transport) (Caco-2 cell monolayer [3]; compound 1 μM): ↑; Percentage (tryptophan transport, control = 100) (Caco-2 cell monolayer [3]; compound 1 μM): 173.23%; Transport rate (tryptophan) (Caco-2 cell monolayer [3]; compound 1 μM): 15.490 ± 0.2161 nmol/min; Tryptophan transport rate (Caco-2 cell monolayer [3]): increased; * (regulatory effect on folate uptake) (Caco2 cells [4]): ↑; Percentage (folate uptake vs own control) (Caco2 cells [4]): 140.37%; Uptake rate (folate) (Caco2 cells [4]): 84.560 ± 4.7200 pmol/mg/min
2 | CC(C)(O)C1CC[C@](C)(C2[C@@H](O)C[C@@]3(C)C4C[C@H](OC5OC(CO)C(O)C(O)C5O)C5C(C)(C)[C@@H](O)CCC56CC46CC[C@]23C)O1 (stereo partly drawn) [AA, cycloastragenol 6-O-β-D-gluco-pyranose] | had regulatory effects on the glucose uptake | ↑ | 179.69 | 11.450 ± 3.2760 | ↑ | 146.67 | 9.3460 ± 2.3210 | ↑ | 145.68 | 9.2830 ± 2.1150 | had regulatory effects on the arginine transport | ↑ | 199.66 | 21.3347 ± 1.7800 | ↑ | 170.48 | 18.2169 ± 1.8700 | ↑ | 162.06 | 17.3164 ± 1.6150 | Arginine transport rate (Caco-2 cell monolayer [2]): increased; Regulatory effects on the tryptophan transport across the Caco2 cell monolayer (Caco-2 cell monolayer [3]): had regulatory effects on the tryptophan transport; * (regulatory effect on tryptophan transport) (Caco-2 cell monolayer [3]; compound 0.01 μM): ↑; Percentage (tryptophan transport, control = 100) (Caco-2 cell monolayer [3]; compound 0.01 μM): 133.08%; Transport rate (tryptophan) (Caco-2 cell monolayer [3]; compound 0.01 μM): 11.900 ± 0.6231 nmol/min; * (regulatory effect on tryptophan transport) (Caco-2 cell monolayer [3]; compound 0.1 μM): ↑; Percentage (tryptophan transport, control = 100) (Caco-2 cell monolayer [3]; compound 0.1 μM): 156.56%; Transport rate (tryptophan) (Caco-2 cell monolayer [3]; compound 0.1 μM): 14.000 ± 0.6445 nmol/min; * (regulatory effect on tryptophan transport) (Caco-2 cell monolayer [3]; compound 1 μM): ↑; Percentage (tryptophan transport, control = 100) (Caco-2 cell monolayer [3]; compound 1 μM): 135.32%; Transport rate (tryptophan) (Caco-2 cell monolayer [3]; compound 1 μM): 12.100 ± 0.5197 nmol/min; Tryptophan transport rate (Caco-2 cell monolayer [3]): increased; * (regulatory effect on folate uptake) (Caco2 cells [4]): ↑; Percentage (folate uptake vs own control) (Caco2 cells [4]): 158.52%; Uptake rate (folate) (Caco2 cells [4]): 84.030 ± 4.9410 pmol/mg/min
